The text below walks through data of US20190337899A1, “QUINOLINE SULFONAMIDES USEFUL TO TREAT DISEASE” (priority 2015, published 2019).

SMILES strings stand for the structures.

One experiment relates to Ob/ob mice. The experiment in a line: Effect of a SERCA agonist on the level of blood glucose. In kind it is in vivo. To be noted: Mus musculus, ip, 96 h, 50 mg/kg i.p. once a day for 5 days, fasting glucose 4 days after administration vs baseline, read-out: Glucose level reduction. The procedure:
Ob/ob mice (10 weeks old, n=7) were intraperitoneally (i.p.) injected with 100 μL of a solution containing 0 (vehicle) or 50 mg/kg of a test compound once a day for a total of 5 days. Fasting glucose was measured at baseline and 4 days after the administration of the test compound. Glucose levels were measured in blood samples drawn from the tail vein using a handheld glucose sensor. Compound effects on blood glucose are shown in Table 5 where A represents a 10-20% reduction in blood glucose, B represents a 21-30% reduction in blood glucose, and C represents a greater than 30% reduction in blood glucose levels.

In another experiment the test system is CSM14.1 neuronal cells. Kind of experiment: Cell survival assay (thapsigargin-treated CSM14.1 neuronal cells, CellTiter-Glo). In kind it is cell-based. The conditions noted are these: compound 2 hrs before about 15 μM thapsigargin, overnight, CellTiter-Glo luminescence. The procedure: CSM14.1 neuronal cells were maintained in Complete Medium at 32 ° C.; wherein the Complete Medium contained Dulbecco's modified eagle medium (DMEM) with 10% fetal bovine serum (FSB), 1% L-glutamine, 100 IU/mL penicillin, and 100 μg/mL streptomycin. The cells were recovered from cultures by trypsinization and then seeded in 384 well plates (Greiner #781098) at a concentration of 1,000 cells/well in 20 μL of DMEM Assay Medium, wherein the DMEM Assay Medium contained 2% FBS, 100 IU/mL penicillin, and 100 μg/mL streptomycin. Seeding was performed using a MultiDrop Combi reagent broadcaster. The plates were incubated overnight at 32° C. A test compound was prepared by 2-fold serial dilution in 100% DMSO using a BIOMEK® 2000 liquid handler (Beckman Coulter). A dose-response curve containing 10 concentrations of the test compound was obtained. Using a BIOMEK® FX liquid handler (Beckman Coulter), 2.5 μL of the test compound was transferred from the 100% DMSO serial dilution plate to an intermediate plate containing 47.5 μL of DMEM Assay Medium containing 2% FBS, 100 IU/mL penicillin, and 100 μg/mL streptomycin and mixed. To reduce or eliminate the interference from the compound's precipitation, 6 μL of the diluted compound was immediately transferred to the assay plate to achieve a high compound concentration of 100 μM in 99% DMEM Assay Medium and 1% DMSO. After the assay plates were incubated for 2 hrs, 4 μL of 112.5 μM thapsigargin (TG) (DMSO stock diluted into Assay TC Medium) was dispensed into each testing well with a MultiDrop Combi reagent broadcaster for a final concentration of about 15 μM TG. The tissue culture media (4 μL) containing vehicle only was transferred manually to each control cell using a 16 channel electronic pipette. After the plates were incubated overnight (about 16 to 24 hrs), CELLTITER-GLO® (Promega) (16 μL) was added to all wells and luminescence was measured. High luminescence indicates cell survival. The biological results are summarized in Table 1 where A represents a cell viability EC50 less than 10 μM and B represents a value greater than or equal to 10 μM and less than 20 μM.
For orientation: ATP-based viability assays read luminescence as a measure of living cells.

For another experiment, the system named is HEK293 cells; N2a cells. Kind of experiment: Cell rescue assay: protection against thapsigargin (TG)-induced cell-death (AlamarBlue). To be noted: Homo sapiens; compound at 20 μM, 2 hrs before thapsigargin (15 μM HEK293, 1 μM N2a), 24 hrs, viability as % RFU of control; read-out: Cell Survival %. In kind it is cell-based, Human (HEK293); Mouse (N2a). The procedure:
Protection against Thapsigargin (TG)-induced Cell-death. Human embryonic kidney (HEK293) cells were grown in Dulbecco's Modified Eagle's Medium (DMEM) with 10% FBS and 1% antibiotic antimycotic solution (ABAM). Mouse neuroblastoma (N2a) cells were grown in 1:1 DMIEM:OPTI-MIEM® with 5% FBS and 1% ABAM. All cells were grown in 10% CO2 in a humidified environment of the incubator. Cells grown in 96-well plates were exposed to a test compound (20 μM) for 2 hrs before addition of thapsigargin (15 μM for HEK293 cells and 1 μM for N2a cells) to induce ER stress. After incubation in cell-culture incubator for 24 hrs, ALAMARBLUE® regent (10% v/v) was added to the wells. Fluorescence reading was taken 2 hrs after the addition of the ALAMARBLUE® regent. Cell-viability was calculated as a percentage of relative fluorescence unit (RFU) compared to control. […] The biological results are summarized in Table 2, where each compound was tested at 20 μM and where A represents a viability greater than 50%, B represents a viability greather than 10% and less than or equal to 50%, C represents a value equal to or below 10% and greater than 1%.
For orientation: Resazurin is reduced to fluorescent resorufin, in cell work by metabolically active cells.

For the next experiment, the target named is T1, SERCA (Homo sapiens, UniProt P16615).
T1 construct: microsomal preparations from HEK 293 cells; endogenous in cells; host or cells: HEK 293 cells (microsomal preparation)
T1 sequence (P16615 whole entry): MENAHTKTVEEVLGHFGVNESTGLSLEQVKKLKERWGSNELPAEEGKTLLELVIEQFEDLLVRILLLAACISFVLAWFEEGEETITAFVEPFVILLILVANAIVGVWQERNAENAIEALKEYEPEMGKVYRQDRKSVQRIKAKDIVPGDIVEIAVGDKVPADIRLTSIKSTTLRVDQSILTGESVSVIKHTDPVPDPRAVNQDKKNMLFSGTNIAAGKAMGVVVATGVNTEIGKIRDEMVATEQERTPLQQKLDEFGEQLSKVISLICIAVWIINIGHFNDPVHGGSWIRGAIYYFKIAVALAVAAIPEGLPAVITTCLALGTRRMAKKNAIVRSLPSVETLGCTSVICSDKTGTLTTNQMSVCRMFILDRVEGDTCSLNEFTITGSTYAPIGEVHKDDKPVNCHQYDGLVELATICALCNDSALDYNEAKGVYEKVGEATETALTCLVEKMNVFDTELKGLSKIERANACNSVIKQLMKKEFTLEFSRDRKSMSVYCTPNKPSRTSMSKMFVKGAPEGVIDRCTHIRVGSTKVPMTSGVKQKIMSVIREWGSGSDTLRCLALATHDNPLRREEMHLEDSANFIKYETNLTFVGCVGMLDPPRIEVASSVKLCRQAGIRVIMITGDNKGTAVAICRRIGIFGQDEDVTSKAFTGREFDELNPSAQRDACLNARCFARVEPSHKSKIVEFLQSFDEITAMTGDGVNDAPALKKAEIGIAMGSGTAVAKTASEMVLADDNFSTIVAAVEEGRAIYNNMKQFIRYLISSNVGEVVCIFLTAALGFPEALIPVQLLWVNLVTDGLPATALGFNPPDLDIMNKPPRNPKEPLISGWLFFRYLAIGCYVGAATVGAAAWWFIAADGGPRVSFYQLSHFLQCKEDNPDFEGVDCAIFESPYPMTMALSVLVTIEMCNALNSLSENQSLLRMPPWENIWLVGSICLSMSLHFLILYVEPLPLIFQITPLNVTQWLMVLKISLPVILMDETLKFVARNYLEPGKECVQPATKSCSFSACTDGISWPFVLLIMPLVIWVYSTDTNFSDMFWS
The experiment in a line: Ca-ATPase assay (NADH-linked, enzyme-coupled ATPase assay). To be noted: microsomal preparations from HEK 293 cells, Vmax from Hill fit of ATPase calcium-dependence. In kind it is biochemical. The procedure: A Ca-ATPase assay was performed using microsomal preparations from HEK 293 cells at a series of calcium concentrations corresponding to the physiological range, relative to controls. The ATP hydrolysis rate was measured over a range of calcium concentrations in the presence of test compounds using an NADH-linked, enzyme-coupled ATPase assay adapted for 96-well microplates, with Vmax determined by fitting the ATPase calcium-dependence to the Hill function. Each well contained 2 μg or 7 μg of SR vesicles (optimized for skeletal or cardiac SR, respectively), 50 mM MOPS (pH 7.0), 100 mM KCl, 5 mM MgCl2, 1 mM EGTA, 0.2 mM NADH, 1 mM phosphoenol pyruvate, 5 IU pyruvate kinase, 5 IU lactate dehydrogenase, and 3.5 μg/mL A23187 (a calcium ionophore). CaCl2 was added to set free [Ca^2+] to the specific values. The assay was started upon addition of ATP at a final concentration of 5 mM, and read in a SpectraMax Plus microplate spectrophotometer. The results are summarized in Table 4, where A represents an increase in SERCA Vmax greater than 50% and B represents a value greater than 10% and less than or equal to 50%.

For the next experiment, the system named is SH-SY5Y cells. The experiment in a line: Cell rescue assay: protection against β-amyloid-induced cell toxicity. In kind it is cell-based. To be noted: Homo sapiens, 96 h, 7.5 uM compound, AB1-42 at 10 uM, 4 days, OD 490 nm, read-out: Cell Survival % (cell rescue). The procedure:
Protection against β-amyloid-induced cell toxicity. Chonpathompikunlert et al. Eu. J. Pharmacol. 2011, 650, 544-549. Human SH-SY5Y cells are suspended in media containing 2% FBS and 2X Gentamicin. Transfer 100 ul/well culture to 96-well plate (20,000 cells/well; passage #5) and incubate overnight. Prepare compound samples at 30 uM. Add 50 ul of the samples to the cells [[…]] and incubate 3 hours. Make stock of 40 uM AB1-42 peptide in assay media. Transfer 50 ul/well to cells/compounds in assay plate. The final assay volume is 200 ul/well, containing 2% FBS, 2× Gentamicin, 7.5 uM compound and AB1-42 at 10 uM. Incubate for 4 days then add 20 µl of Promega Substrate Cell Titer 96 Aqueous One Solution Reagent to each well. Incubate 37° C. and read OD at 490 nm. The results are summarized in Table 3, where A represents a value greater than 50% cell rescue, B represents a value greater than 10% and less than or equal to 50% cell rescue, and C represents a value greater than 1% and less than or equal to 10% cell rescue.

For `Cc1ccc2cccc(NS(=O)(=O)c3ccc(OC(C)C)cc3)c2n1` [D1, 4-Isopropoxy-N-(2-methylquinolin-8-yl)benzenesulfonamide], the inhibition in vivo at 50 mg/kg in the experiment on Ob/ob mice is > 30%. For the same compound, in the experiment on CSM14.1 neuronal cells, the EC50 (usually the concentration giving half of the maximal effect) was < 10 µM. For the same compound, the viability at 20 µM in the experiment with HEK293 cells; N2a cells was > 50%. The “SERCA Vmax Increase” value on SERCA is “B (B represents a value greater than 10% and less than or equal to 50%)”. In addition, in the experiment with SH-SY5Y cells, the viability at 7.5 µM was > 50%.
As to `CCOc1ccc(S(=O)(=O)Nc2cccc3ccc(C)nc23)cc1` [D2, 4-Ethoxy-N-(2-methylquinolin-8-yl)benzenesulfonamide], in the experiment on Ob/ob mice, the inhibition in vivo at 50 mg/kg was > 30%. For the same compound, the EC50 in the experiment with CSM14.1 neuronal cells was < 10 µM. In the experiment with HEK293 cells; N2a cells, the viability at 20 µM was in the range of 10 to 50%. In addition, at SERCA, the “SERCA Vmax Increase” value was “A (A represents an increase in SERCA Vmax greater than 50%)”. Also, the viability at 7.5 µM with SH-SY5Y cells was > 50%.
The corresponding values for `COc1c(C)cccc1S(=O)(=O)Nc1cccc2ccc(C)nc12` [D3, 2-Methoxy-3-methyl-N-(2-methylquinolin-8-yl)benzenesulfonamide] are 10 to 20%, 10 to 20 µM, 10 to 50%, “A (A represents an increase in SERCA Vmax greater than 50%)” and 10 to 50%.
On to `Cc1ccc2cccc(NS(=O)(=O)c3cc4ccccc4s3)c2n1` [D4, N-(2-Methylquinolin-8-yl)benzo[b]thiophene-2-sulfonamide], for which the inhibition in vivo at 50 mg/kg in the experiment with Ob/ob mice is > 30%. In addition, the EC50 in the experiment with CSM14.1 neuronal cells lay within 10 to 20 µM. The viability at 20 µM in the experiment on HEK293 cells; N2a cells is > 50%. For the same compound, the “SERCA Vmax Increase” value on SERCA was “B (B represents a value greater than 10% and less than or equal to 50%)”. Moreover, the viability at 7.5 µM in the experiment with SH-SY5Y cells was 10 to 50%.
In the case of `Cc1ccc2cccc(NS(=O)(=O)c3ccc(C(F)(F)F)cc3)c2n1` [D5, 4-Trifluoromethyl-N-(2-methylquinolin-8-yl)benzenesulfonamide], the inhibition in vivo at 50 mg/kg with Ob/ob mice lay in the range of 21 to 30%. For the same compound, the EC50 in the experiment with CSM14.1 neuronal cells is < 10 µM. Also, in the experiment on HEK293 cells; N2a cells, the viability at 20 µM was > 50%. For the same compound, on SERCA, the “SERCA Vmax Increase” value is listed as “A (A represents an increase in SERCA Vmax greater than 50%)”. Also, the viability at 7.5 µM in the experiment on SH-SY5Y cells lay within 10 to 50%.
`Cc1ccc2cccc(NS(=O)(=O)c3ccc(C#N)cc3)c2n1` [D6, 4-Cyano-N-(2-methylquinolin-8-yl)benzenesulfonamide]: in the experiment with Ob/ob mice, the inhibition in vivo at 50 mg/kg fell in the range of 21 to 30%. This compound came in with an EC50 in the experiment on CSM14.1 neuronal cells of 10 to 20 µM. For the same compound, the viability at 20 µM in the experiment with HEK293 cells; N2a cells lay within 10 to 50%. The “SERCA Vmax Increase” value at SERCA is recorded as “A (A represents an increase in SERCA Vmax greater than 50%)”. The viability at 7.5 µM with SH-SY5Y cells lay within 1 to 10%.
`Cc1ccc2cccc(NS(=O)(=O)c3ccc(N(C)C)cc3)c2n1` [D7, 4-Dimethylamino-N-(2-methylquinolin-8-yl)benzenesulfonamide]: the inhibition in vivo at 50 mg/kg with Ob/ob mice was in the range of 21 to 30%. In the experiment with CSM14.1 neuronal cells, this compound came in with an EC50 of 10 to 20 µM. In addition, the viability at 20 µM with HEK293 cells; N2a cells fell in the range of 10 to 50%. The “SERCA Vmax Increase” value on SERCA is “B (B represents a value greater than 10% and less than or equal to 50%)”. The viability at 7.5 µM in the experiment with SH-SY5Y cells lay in the range of 1 to 10%.
Take `Cc1ccc2cccc(NS(=O)(=O)c3cc(Br)cs3)c2n1` [D8, 4-Bromo-N-(2-methylquinolin-8-yl)thiophene-2-sulfonamide]: the inhibition in vivo at 50 mg/kg in the experiment on Ob/ob mice is > 30%. In the experiment on CSM14.1 neuronal cells, the EC50 lay within 10 to 20 µM. Besides, in the experiment with HEK293 cells; N2a cells, the viability at 20 µM is > 50%. Moreover, on SERCA, the “SERCA Vmax Increase” value was “B (B represents a value greater than 10% and less than or equal to 50%)”. Moreover, in the experiment on SH-SY5Y cells, the viability at 7.5 µM was 10 to 50%.
For the compound `Cc1ccc2cccc(NS(=O)(=O)c3ccc(C)o3)c2n1` [D9, 5-Methyl-N-(2-methylquinolin-8-yl)furan-2-sulfonamide], in the experiment on Ob/ob mice, the inhibition in vivo at 50 mg/kg lay within 10 to 20%. This compound also came in with an EC50 with CSM14.1 neuronal cells of 10 to 20 µM. For the same compound, the viability at 20 µM with HEK293 cells; N2a cells lay in the range of 10 to 50%. In addition, the “SERCA Vmax Increase” value on SERCA is “B (B represents a value greater than 10% and less than or equal to 50%)”. In addition, the viability at 7.5 µM with SH-SY5Y cells lay within 10 to 50%.
In the case of `Cc1ccc2cccc(NS(=O)(=O)c3ccc(C(C)(C)C)cc3)c2n1` [D10, 4-(tent-Butyl)-N-(2-methylquinolin-8-yl)benzenesulfonamide], the inhibition in vivo at 50 mg/kg with Ob/ob mice fell in the range of 21 to 30%. Moreover, the EC50 in the experiment on CSM14.1 neuronal cells was 10 to 20 µM. Also, in the experiment on HEK293 cells; N2a cells, the viability at 20 µM lay in the range of 10 to 50%. In addition, the “SERCA Vmax Increase” value at SERCA was “A (A represents an increase in SERCA Vmax greater than 50%)”. Besides, the viability at 7.5 µM in the experiment on SH-SY5Y cells was 10 to 50%.
